Source: US20230000885A1, “Methods of Treating Psychological and Brain Disorders” (University of Maryland, Baltimore, priority 2019, published 2023)
Entries after “also recorded” stand apart in the source; their conditions may differ.

Legend:
[1] = test system: male C57BI/6J mice; assay: sucrose preference test (SPT) after chronic multimodal stress (CMMS); format: in vivo; conditions: stress-susceptible CMMS mice; ketanserin 2 mg/kg alone (ketanserin-vehicle); vs values after CMMS
[2] = test system: male C57BI/6J mice; assay: female urine sniff test (FUST) after chronic multimodal stress; format: in vivo; conditions: stress-susceptible CMMS mice; ketanserin 2 mg/kg alone; vs values after CMMS
[3] = test system: male C57BI/6J mice; assay: locomotion (video, Any-maze) after injection; format: in vivo; conditions: ketanserin 2 mg/kg pretreatment, recorded 90 minutes after second injection, with or without psilocybin
[4] = test system: 5-HT2Rs; conditions: cited from earlier work
[5] = biological target: 5-HTRs; conditions: read-out: affinities at almost all 5-HTRs; cited from earlier work
[6] = biological target: 5-HT1BRs (Homo sapiens, UniProt P28222); conditions: cited from earlier work
Sequence of 5-HT1BRs (P28222 whole entry): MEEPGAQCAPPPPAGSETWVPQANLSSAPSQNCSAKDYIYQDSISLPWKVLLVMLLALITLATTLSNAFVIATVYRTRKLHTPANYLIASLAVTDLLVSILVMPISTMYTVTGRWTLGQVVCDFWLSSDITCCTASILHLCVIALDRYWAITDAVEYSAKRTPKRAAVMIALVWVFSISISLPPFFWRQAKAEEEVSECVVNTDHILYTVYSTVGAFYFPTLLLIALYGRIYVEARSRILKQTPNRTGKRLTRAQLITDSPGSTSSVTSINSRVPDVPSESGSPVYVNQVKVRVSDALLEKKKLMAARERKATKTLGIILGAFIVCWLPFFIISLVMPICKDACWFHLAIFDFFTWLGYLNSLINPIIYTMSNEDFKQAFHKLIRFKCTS

## O=C(c1ccc(F)cc1)C1CCN(CCn2c(=O)[nH]c3ccccc3c2=O)CC1 [ketanserin, Ketanserin]
[1]
  sucrose preference (SP): no significant effect on either behavior
[2]
  preference for female urine: nor ketanserin alone (p=0.072; n=4) had a significant effect; also recorded: no significant effect on either behavior
[3]
  time mobile / mobility: significant effect of ketanserin
  total distance travelled: main effect of ketanserin
[3]; listed as Ketanserin
  time mobile / mobility: significant increase in mobility
[4]; healthy subjects
  acute psilocybin-induced changes in processing of negative emotional stimuli: prevented
[4]; humans, ketanserin block of 5-HT2Rs
  psilocybin-induced self-reported perceptual distortions: significantly attenuates self-reported perceptual distortions; also recorded: attenuates psilocybin-induced perceptual alterations

## CN(C)CCc1c[nH]c2cccc(O)c12 [Psilocin]
[5]
  Ki: 0.003 to 0.5 µM
[6]
  affinity for 5-HT1BRs: high affinity
